How the values were obtained:
[1] = system: Neuro2A cells; assay: Inhibition of ROS production in Neuro2A cells (H2O2-induced, DCFH-DA fluorescence); assay type: cell-based; conditions: ROS induced with 0.2 mM H2O2
Procedure: The experiments carried out to evaluate the inhibition of ROS production using the compounds of the invention were based on the method reported by Danli W. and Patricia Yotnda in Production and Detection of Reactive Oxygen Species (ROS) in Cancers, J. Vis Exp. 2011; (57):3357.
Cultured brain Neuroblastoma2A (Neuro2A) were used.
15.000 Cells were plated in a 96 well plate with black walls and transparent flat bottom in 100 μL of DMEM complete medium (including 10% fetal bovine serum, […] L-Glutamine) containing compounds at indicated concentrations or 0.5% dimethylsulfoxide (DMSO), and kept overnight at 37° C. to allow them to attach to the plate. The following day the culture medium was removed, cells were washed with 100 μl of Phosphate Buffer Saline, pH 7.4 (PBS) and loaded with 100 μL of PBS containing 10 μM of dichloro-dihydro-fluorescein diacetate (DCFH-DA) and compounds at the indicated concentrations (or DMSO 0.5%) for additional 45 min at 37° C. DCFH-DA was prepared as a 20 mM stock in (DMSO) and kept in the dark at 4° C.
ROS production was induced by exposure with 0.2 mM H2O2 dissolved in 100 μl of complete DMEM medium without phenol red. Fluorescence intensity was measured at an […] wavelengths of 485/535 nm and ROS production was monitored for 2 h, at 37° C.

[2] = biological target: T1, human NAAA (Homo sapiens, UniProt Q02083); assay: In vitro human NAAA fluorogenic assay; assay type: biochemical; conditions: Activity h-NAAA Fluorogenic assay, enzyme-enriched lysate of HEK-293 cells stably transfected with human NAAA
T1 construct: expressed in transfected cells; host or cells: HEK-293 (stably transfected, G418 selection); enzyme-enriched lysate
T1 sequence (Q02083 126-359 limits assumed): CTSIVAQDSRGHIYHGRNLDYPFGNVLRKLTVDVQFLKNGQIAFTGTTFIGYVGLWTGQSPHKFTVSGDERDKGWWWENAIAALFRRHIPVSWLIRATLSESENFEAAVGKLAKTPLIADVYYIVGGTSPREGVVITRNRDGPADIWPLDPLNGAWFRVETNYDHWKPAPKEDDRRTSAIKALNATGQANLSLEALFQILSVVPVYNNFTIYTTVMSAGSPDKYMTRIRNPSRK
T1 sequence (Q02083 29-125 limits assumed): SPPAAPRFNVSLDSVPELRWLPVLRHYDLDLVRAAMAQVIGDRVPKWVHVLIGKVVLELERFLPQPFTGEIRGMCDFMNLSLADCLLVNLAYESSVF
Procedure: Human recombinant proteins were obtained from HEK-293 stable overexpressing NAAA cell lines. Cells were grown in Dulbecco's modified Eagle medium (DMEM) containing 10% FBS, 1% penicillin/streptomycin, 1% glutamine and 500 μg/mL G418. To obtain membrane preparation cells were scraped off with cold phosphate-buffered saline (PBS) and collected by centrifugation (300×g, 7 min, 4° C.). Cell pellet were stored at −80° C. until protein preparation.
In Vitro Human NAAA Assay
Preparation of Enzyme-Enriched Lysate (h-NAAA).
HEK-293 cells stably transfected with the human NAAA coding sequences were used as enzyme source. Cell pellets were suspended in 20 mM Tris HCl (pH 7.4) with 0.32 M sucrose, sonicated and centrifuged at 800×g for 30 min at 4° C. Supernatants were then ultracentrifuged at 12,000×g for 30 min at 4° C. Pellets were re-suspended in PBS buffer (pH 7.4) and subjected to three freeze-thaw cycles at −80° C. The suspension was finally ultracentrifuged at 105,000×g for 1 h at 4° C., supematants were collected, protein concentration was measured and samples aliquoted and stored at −80° C. until use.
The results are summarized in Table 3 as follows, wherein +: IC50>2 μM; ++: 1.0 μM<IC50<2 μM; +++: IC50<1 μM: […]

Question: For `CCCCc1ccc(OC2CC3CCC(C2)N3S(=O)(=O)c2c(C)n[nH]c2C)cc1` [Example 54, (1R,3r,5S)-3-(4-Butylphenoxy)-8-[(3,5-dimethyl-1H-pyrazol-4-yl)sulfonyl]-8-azabicyclo[3.2.1]octane], which “Inhibition of ROS production in neuro 2A cells, 5 μM (inhibition)” value ([1]; compound 5 μM) is on record?
Answer: 17%

Question: And the “Inhibition of ROS production in neuro 2A cells, 10 μM (inhibition)” value ([1]; compound 10 μM)?
Answer: 114%

Question: And the IC50 [2]?
Answer: < 1 µM
